The test has as its target Tyrosine-protein kinase Blk (Homo sapiens) (UniProt P51451). Kind of test: inhibition of BLK tyrosine kinase activity – biochemical, Z'-LYTE FRET, direct format, recombinant human, dose response (AID 1671221). The settings on record: Z'-LYTE FRET peptide phosphorylation.

Usually IC50 stands for the concentration that gives 50% inhibition.

Chain of Tyrosine-protein kinase Blk (Homo sapiens) (P51451 whole entry, looked up): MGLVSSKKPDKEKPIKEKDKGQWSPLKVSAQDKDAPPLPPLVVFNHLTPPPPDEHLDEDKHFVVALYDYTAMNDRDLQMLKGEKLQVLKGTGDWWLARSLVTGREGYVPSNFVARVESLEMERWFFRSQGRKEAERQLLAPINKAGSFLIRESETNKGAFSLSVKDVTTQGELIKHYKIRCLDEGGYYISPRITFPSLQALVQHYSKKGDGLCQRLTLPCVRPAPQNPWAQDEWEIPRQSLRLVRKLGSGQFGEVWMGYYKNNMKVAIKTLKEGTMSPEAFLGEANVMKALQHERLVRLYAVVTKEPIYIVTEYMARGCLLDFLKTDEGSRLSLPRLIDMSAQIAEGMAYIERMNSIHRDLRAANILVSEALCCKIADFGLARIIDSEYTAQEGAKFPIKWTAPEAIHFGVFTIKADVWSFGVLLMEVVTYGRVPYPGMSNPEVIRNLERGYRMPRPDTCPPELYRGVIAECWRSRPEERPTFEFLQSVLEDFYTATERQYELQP

For `COc1cc2ncnc(Nc3cccc(Cl)c3)c2cc1OC`, the IC50 was 1160 nM.

For the origin of these results see PubChem BioAssay AID1671221.
